Reference: publication PMC11056991, “Promising Anticancer Prodrugs Based on Pt(IV) Complexes with Bis-organosilane Ligands in Axial Positions” (Journal of Medicinal Chemistry, 2024)

Columns and labels:
[1] = tested on: histone gH2Ax foci at double-strand DNA breaks in HCT 116 cells; test: Immunofluorescence of histone gH2Ax DNA damage foci; format: cell-based, human; conditions: HCT 116, 0.5 μM, 48 h
Experimental: Confocal imaging of the DNA damage response was followed by immunofluorescence of histone gH2Ax foci at double-strand DNA breaks (DSB) (Figure 4A). […] However, none of the Pt(IV) prodrugs were able to increase p53 levels even at concentrations higher than those needed to reduce cell viability.
Cells in coverslips were washed three times and fixed with 4% paraformaldehyde in PBS (pH 7.4) for 10 min, washed again, permeabilized (PBS [pH7.4], 0.5% Triton X-100, 0.2% BSA) for 5 min, blocked (PBS [pH7,4], 0,05% Triton X-100, 5% BSA) for 1 h at room temperature, and incubated with primary antibody overnight at 4 °C. After three washes (5 min), cells were incubated with secondary antibody for 1 h at room temperature, and the nuclei were stained with 4,6-diamidino-2-phenylindole (DAPI, 1:10,000, Invitrogen) for 10 min. Slides were mounted, and images were acquired using an FV3000 confocal microscope (Olympus) with a 63× objective. The antibodies rabbit monoclonal anti-Histone H2A.X (D17A3) (dilution 1:400) and mouse monoclonal anti-Lamin A/C (4C11) (dilution 1:400) were purchased from Cell Signaling (Danvers, Massachusetts, USA). Donkey Anti-Rabbit-Alexa Fluor 488 (dilution 1:500) and Donkey Anti-Mouse-Alexa Fluor 594 (dilution 1:500) were purchased from Invitrogen (Barcelona, Spain).

[2] = tested on: HCT 116 cancer cells; conditions: data not shown
Experimental: Cell were trypsinized, centrifuged at 500g for 5 min, resuspended in PBS, and stained with 7-aminoactinomycin D (7AAD, Santa Cruz Biotechnology), a DNA intercalating dye excluded from viable cells due to membrane impermeability. The 7AAD was excited at 546 nm and analyzed at 656 nm. Only apoptotic and necrotic cells are stained by these dyes. After incubation for 50 min in the dark at 37 °C, the cells were analyzed by flow cytometry (CytoFlex, Beckman Coulter). The percentages of cells stained with or without dyes were analyzed using the CytExpert Software (Beckman Coulter).

[3] = 195Pt NMR reduction kinetics with ascorbic acid; format: physicochemical; conditions: AsA 4:1 excess, DMSO/D2O (4:1), 37 °C, 2, 6, 24 h
Experimental: AsA presents an intracellular concentration of 1 mM, whereas the GSH concentration is 2 mM.[38] This reactivity was monitored by ^195Pt NMR at different times. Thus, by analyzing the different regions where the signals of Pt(II)/Pt(IV) species appear, it is possible to identify and assign the different compounds formed during the reaction. In most cases, the regions where the Pt(II) and Pt(IV) signals appear are separated by more than 3000 ppm.[33]
We first studied the reduction of the complexes against AsA, monitoring the reaction in both the Pt(IV) and Pt(II) region at 2, 6, and 24 h. In both cases, we used a mixture of DMSO/D2O (4:1) to reach the solubilization of the complexes and the AsA. In the Pt(IV)-biSi-1 reduction experiment, during the first hour, only the signal at 1210 ppm appeared in the Pt(IV) region (Figure S13A), which corresponds to the original complex, and no signal was detected in the Pt(II) region.
Each solution was then slowly added to 100 μL of a solution of the corresponding reducing agent (AsA or GSH in an excess of 4:1 against each complex) in D2O at 37 °C. After that, 100 μL of DMSO-d6 was added carefully to each mixture, reaching a final concentration of […] (DMSO-d6/D2O). All of these mixtures were performed using a thermoshaker. Each sample was monitored by ^195Pt NMR at 2, 6, and 24 h.

Compound: CC(C)N.CC(C)N.CCO[Si](CCCNC(=O)[O][Pt]([Cl])([Cl])[O]C(=O)NCCC[Si](OCC)(OCC)OCC)(OCC)OCC [Pt(IV)-biSi-2, cis-Dichloro(diisopropylamine)-trans-[3-(triethoxysilyl)propylcarbamate]platinum(IV)]
- Unresolved DSB / histone H2Ax foci [1]: foci were retained at 48 h
- Cytotoxicity by flow cytometry, HCT 116 [2]: stronger effect
- Reduction of the Pt(IV) complex by AsA (Pt(IV) signal in 195Pt NMR) [3]: no signals were observed in the Pt(IV) region after reaction for 2 h
